{"source": "paper PMC9499467", "about": "“Phenanthroindolizidine Alkaloids Isolated from Tylophora ovata as Potent Inhibitors of Inflammation, Spheroid Growth, and Invasion of Triple-Negative Breast Cancer” (International Journal of Molecular Sciences, 2022)", "key": {"MDA-MB-231": {"system": "MDA-MB-231", "assay": "Cell cycle studies (PI-DNA flow cytometry) in MDA-MB-231", "format": "cell-based, human", "details": "MDA-MB-231, 20 nM, 72 h", "experimental": "To investigate cell cycle progression in the presence of compound (1s) or paclitaxel (Santa Cruz Biotechnology; #sc-201439), we quantified the DNA content in the cell. On day 1, the cells were seeded in 1 mL into a 24 well plate (Greiner; #662160). On day 2, MDA-MB-468-UnaG were pre-treated either without (normoxia) or with 100 µM CoCl2 (hypoxia) (Sigma-Aldrich; #C8661) for 24 h before compounds were applied. On day 2 for MDA-MB-231 or on day 3 for MDA-MB-468-UnaG, paclitaxel was applied at the concentrations 15 nM, 37 nM, and 100 nM, and compound (1s) was applied at concentrations ranging from 2 nM to 1000 nM. […] The fluorescence signal resulting from PI-DNA complex formation was recorded using the flow cytometer CytoFlex (Beckmann Coulter, Krefeld, Germany). The cell cycle phase population was determined based on the DNA content in a set of chromosomes (n) in a cell using the integrated software CytExpert (Beckmann Coulter): sub-G0/G1 (<2n), G0/G1 (2n), S (>2n, <4n), G2/M (4n) or hyperploid cells (>4n) (see Figure S10).\nFSC-A and FSC-height (H). (c) To evaluate cell cycles phases, the range of analyzed cells was deter-mined within the (b) single cells by excluding recorded events that extend the proportional distri-bution of the DNA chromosome set (n): < 2n; > 4n. […]"}, "HIF": {"system": "HIF", "design": "method as in earlier work", "details": "luminal breast cancer cell line T47D; ref 62 (Chen et al.); cited from earlier work"}, "HIF-1α": {"system": "HIF-1α", "assay": "HIF inhibition, HIF-mediated UnaG reporter expression", "format": "cell-based", "details": "for decrease of HIF-1α-mediated UnaG expression: normoxia, MDA-MB-468-UnaG", "experimental": "The HIF activity after treatment with compound (1s) or with the commercially available NFκB inhibitor BAY 11-7085 ((Hycultec, Beutelsbach, Germany; #HY-10257-10),) for 24 h was determined using the UnaG-reporter gene cell line MDA-MB-468-UnaG. On day 1, 1.5 × 10^4 MDA-MB-468-UnaG cells were seeded into a black 96 well plate (Greiner; #655090). […] HIF-mediated UnaG expression was recorded in z-stacked images using the CQ1 high-content imaging system (Yokogawa, Wehr, Germany; 100× g magnification). Beforehand, the UnaG fluorescence intensity was determined in UnaG-expressing cell clones (Figure S5).\nFigure 7 Compound (1s) decreases HIF-dependent gene transcription. MDA-MB-468-UnaG cells were pre-treated for 1 h without (CTRL) or with compound (1s) or BAY 11-7085 (BAY) before being grown (a,b) in the absence (normoxia; CTRL) or (c,d) presence of 100 µM CoCl2 (hypoxia) for another 24 h. (a,c) Representative fluorescence images. Scale bar: 200 µm (b,d) Total fluorescence intensity of HIF-mediated UnaG was normalized to the CTRL group. Statistical difference was calculated with one-way ANOVA (b) vs. CTRL (normoxia) (ns = not significant, * p < 0.05). (d) vs. CTRL (hypoxia) (# p < 0.05); vs. CoCl2 (* p < 0.05, ** p < 0.01, *** p < 0.001). (b,d) Columns represent the mean ± SEM (n = 3)."}, "MDA-MB-468-UnaG [1]": {"system": "MDA-MB-468-UnaG", "assay": "2D cell viability in MDA-MB-468-UnaG under normoxia or CoCl2-simulated hypoxia"}, "MDA-MB-468-UnaG [2]": {"system": "MDA-MB-468-UnaG", "assay": "Cell cycle studies (PI-DNA flow cytometry) in MDA-MB-468-UnaG", "format": "cell-based", "details": "normoxia", "experimental": "To investigate cell cycle progression in the presence of compound (1s) or paclitaxel (Santa Cruz Biotechnology; #sc-201439), we quantified the DNA content in the cell. On day 1, the cells were seeded in 1 mL into a 24 well plate (Greiner; #662160). On day 2, MDA-MB-468-UnaG were pre-treated either without (normoxia) or with 100 µM CoCl2 (hypoxia) (Sigma-Aldrich; #C8661) for 24 h before compounds were applied. On day 2 for MDA-MB-231 or on day 3 for MDA-MB-468-UnaG, paclitaxel was applied at the concentrations 15 nM, 37 nM, and 100 nM, and compound (1s) was applied at concentrations ranging from 2 nM to 1000 nM. Post-treatment cells were washed in 1× PBS (Thermo Fisher Scientific; #14190); fixed in 70% (v/v) ethanol overnight at 4 °C; washed again in 1× PBS; and, finally, DNA was stained for 15 min at 37 °C in the presence of 10 µg/mL propium iodide (PI; Sigma-Aldrich; #4864) and 100 µg/mL RNase A (Thermo Fisher Scientific; #EN0531) dissolved in 0.1% triton™ X-100 (Sigma-Aldrich; #X100), dissolved in PBS. The fluorescence signal resulting from PI-DNA complex formation was recorded using the flow cytometer CytoFlex (Beckmann Coulter, Krefeld, Germany). The cell cycle phase population was determined based on the DNA content in a set of chromosomes (n) in a cell using the integrated software CytExpert (Beckmann Coulter): sub-G0/G1 (<2n), G0/G1 (2n), S (>2n, <4n), G2/M (4n) or hyperploid cells (>4n) (see Figure S10)."}}, "note": "Where two headings read alike, the source gives them in different places.", "data": [{"compound": "COc1ccc2c3c(c4cc(OC)c(OC)cc4c2c1)CN1CCCC1C3O", "note": "(centres unmarked) [Compound (1), O-methyltylophorinidine]", "values": [{"measurement": "cell cycle phase population", "setting": "MDA-MB-231", "result": "Cell populations increased in the S-phase as well as in the G2/M phase"}, {"measurement": "HIF induction under low oxygen level", "setting": "HIF", "result": "blockade of HIF induction"}]}, {"compound": "COc1ccc2c3c(c4cc(OC)c(OC)cc4c2c1)CN1CCCC1C3O", "note": "(centres unmarked) [Compound (1s), O-methyltylophorinidine]", "values": [{"measurement": "reduction of HIF-1α-activity", "setting": "HIF-1α; CoCl2-simulated hypoxia (100 µM), 20 nM, 24 h", "result": "14 ± 4", "unit": "%"}, {"measurement": "decrease of HIF-1α-mediated UnaG expression", "setting": "HIF-1α; 10 nM, 24 h", "result": "11 ± 3", "unit": "%"}, {"measurement": "decrease of HIF-1α-mediated UnaG expression", "setting": "HIF-1α; 20 nM, 24 h", "result": "13 ± 4", "unit": "%"}, {"measurement": "CoCl2-induced increase in HIF-1α-activity", "setting": "HIF-1α; pre-treatment before CoCl2-simulated hypoxia, 6 µM BAY 11-7085, 2, 5, 10, 20 nM (1s)", "result": "blocked"}, {"measurement": "IC50", "setting": "MDA-MB-468-UnaG [1]; 24 h, read-out: cell viability IC50, hypoxia", "result": 6.5, "unit": "nM"}, {"measurement": "decrease of cytotoxic effects by hypoxia (factor)", "setting": "MDA-MB-468-UnaG [1]; hypoxia vs normoxia, MDA-MB-468-UnaG", "result": "barely affected"}, {"measurement": "IC50", "setting": "MDA-MB-468-UnaG [1]; read-out: cell viability IC50, normoxia", "result": 6.7, "unit": "nM"}, {"measurement": "sub-G0/G1 population", "setting": "MDA-MB-468-UnaG [2]; 48 h", "result": "increase in the sub-G0/G1 population"}, {"measurement": "cell cycle phase population", "setting": "MDA-MB-468-UnaG [2]; (1s) 20 nM 72 h, paclitaxel within 24 h", "result": "significant increase in G2/M population"}]}]}
